Laboratory results as given in US20080113900A1, “Pharmaceutical compositions and therapeutic applications for the use of a synthetic vitamin B12 derivative, glutathionylcobalamin” (priority 2006, published 2008).
Values joined by “and” are separate entries in the source; they are usually repeats but may differ in a detail not shown here. Equal entries are not always repeated. Structures can show the parent of a compound that is named as a salt.

Columns and labels:
[1] = Decomposition in PBS at 37° C. monitored by UV/Vis spectrophotometry; assay type: physicochemical
Protocol: The decomposition of GSCbl, NACCbl, and HcyCbl in PBS at 37° C. was monitored by UV/Vis spectrophotometry.

SK-HEP-1 cells [2] = assay: Protection of endothelial cells from homocysteine-induced cell death (MTS assay); assay type: cell-based, human
Protocol: The effect of a constant concentration of NACCbl and GSCbl to protect cells against variable concentrations of homocysteine was assessed. […] Cell viability was determined by MTS® assay. Data shown in FIG. 4 are representative of means ±SE of 6 independent samples. FIG. 4 illustrates that NACCbl (▪) and GSCbl (▴) protect endothelial cells from the effect of homocysteine. […] Cell viability was determined by MTS® assay. […] There was a decrease in protection as homocysteine concentration increased, but there was still ˜60% survival at 50 μM homocysteine.
The data was normalized (log 2 and log 10) as shown in FIGS. 16 and 17 and Tables 16 and 17, respectively, below.

SK-HEP-1 cells [3] = assay: Protection of endothelial cells from H2O2-induced cell death (MTS assay); assay type: cell-based, human; set-up: key to Cell viability (MTS assay): cell viability as % survival; conditions: for Cell viability (MTS assay): SK-HEP-1, n = 6 replicates
Protocol: The effect of increasing concentrations of NACCbl and GSCbl to protect endothelial cells from the effect of H2O2 was assessed. […] Cell viability was determined by MTS® assay. […] FIG. 3 illustrates that NACCbl and GSCbl protect endothelial cells from the effect of H2O2. […] Cell viability was determined by MTS® assay. […] There was no difference between the protection afforded by NACCbl and that by GSCbl. Both required 100 μM to achieve >80% survival.

SK-HEP-1 cells [4] = assay: Protection from homocysteine-induced apoptosis, Caspase-3 activity (apoptosis assay); assay type: cell-based, human; conditions: 30 μM two hours, then 30 μM homocysteine two hours
Protocol: Caspase 3 is activated when cells undergo apoptosis. Caspase-3 assay is a standard for apoptosis assay. Homocysteine is a known inducer of apoptosis. Cells were cultured in 96-well plates for 24 hours and then treated with reagents under test conditions. Cytotoxic agents, H2O2 and etoposide were added to negative control wells. The assay was performed according to the manufacturer's protocol, as follows: Cells were re-suspended in 100 μl of clear media and 50 μl of Caspase-3 substrate solution was immediately added to each test well. […] Cell viability was determined by MTS® assay. […] Cell viability was determined by MTS® assay.

Hsp32 = Hsp32 gene expression (RT-PCR, densitometry); assay type: cell-based, human
SK-HEP-1 cells [5] = assay: Effect of high concentrations of NACCbl and GSCbl on SK-HEP-1 cells (MTS assay, 24 hours); assay type: cell-based, human; conditions: for Cell viability by MTS assay (FIG. 13): SK-HEP-1, 3 replicates
SK-HEP-1 cells [6] = assay: Protection of endothelial cells from H2O2-induced cell death (MTS assay); assay type: cell-based, human; set-up: key to Cell viability (MTS assay): cell viability as % survival; conditions: SK-HEP-1, n = 6 replicates
methionine synthase = molecular target: T1, methionine synthase (Oryctolagus cuniculus, UniProt G1SXW3); conditions: rabbit spleen extracts; cited from earlier work
T1 construct: methionine synthase activity in rabbit spleen extracts; from tissue; host or cells: rabbit spleen extract
T1 sequence (G1SXW3 1-1218): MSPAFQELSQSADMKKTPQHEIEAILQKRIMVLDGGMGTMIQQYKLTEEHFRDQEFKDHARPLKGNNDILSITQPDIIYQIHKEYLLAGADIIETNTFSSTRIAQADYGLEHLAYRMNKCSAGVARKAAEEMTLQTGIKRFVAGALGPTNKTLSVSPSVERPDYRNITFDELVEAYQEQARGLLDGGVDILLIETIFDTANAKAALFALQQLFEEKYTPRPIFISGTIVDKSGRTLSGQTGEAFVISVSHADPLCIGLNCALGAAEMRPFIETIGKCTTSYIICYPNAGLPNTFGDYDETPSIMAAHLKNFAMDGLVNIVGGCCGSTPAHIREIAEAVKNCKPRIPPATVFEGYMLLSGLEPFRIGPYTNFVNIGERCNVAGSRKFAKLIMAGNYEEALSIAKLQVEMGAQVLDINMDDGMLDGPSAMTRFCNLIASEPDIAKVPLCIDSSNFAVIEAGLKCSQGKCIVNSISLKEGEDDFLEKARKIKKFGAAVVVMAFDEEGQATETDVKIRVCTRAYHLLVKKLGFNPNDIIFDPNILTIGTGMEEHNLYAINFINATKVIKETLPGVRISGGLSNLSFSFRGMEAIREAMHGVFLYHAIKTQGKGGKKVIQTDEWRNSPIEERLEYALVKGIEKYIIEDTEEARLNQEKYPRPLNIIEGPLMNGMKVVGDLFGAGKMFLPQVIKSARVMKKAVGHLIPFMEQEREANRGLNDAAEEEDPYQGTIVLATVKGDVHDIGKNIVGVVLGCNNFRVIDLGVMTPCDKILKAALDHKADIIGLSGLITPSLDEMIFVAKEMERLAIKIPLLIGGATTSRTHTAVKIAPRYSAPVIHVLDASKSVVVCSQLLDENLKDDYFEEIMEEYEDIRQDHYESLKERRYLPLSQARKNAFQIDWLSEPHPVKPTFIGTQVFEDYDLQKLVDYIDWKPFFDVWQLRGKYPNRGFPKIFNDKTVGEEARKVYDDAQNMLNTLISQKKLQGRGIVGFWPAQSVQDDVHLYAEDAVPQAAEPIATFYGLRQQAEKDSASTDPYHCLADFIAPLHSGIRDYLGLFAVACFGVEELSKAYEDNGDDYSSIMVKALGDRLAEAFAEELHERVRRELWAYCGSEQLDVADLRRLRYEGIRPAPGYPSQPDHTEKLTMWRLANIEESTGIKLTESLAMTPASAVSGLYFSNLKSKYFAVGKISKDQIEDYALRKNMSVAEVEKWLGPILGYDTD

SK-HEP-1 cells [7] = conditions: 12.5 µM
in vitro = conditions: human, SK-HEP-1 cells
SK-HEP-1 cells [8] = assay: Effect of homocysteine and H2O2 on endothelial cell viability (MTS assay); conditions: for Cell viability (MTS assay): SK-HEP-1, 2 hours, n = 6 replicates
Hsp70 = Hsp70 gene expression (RT-PCR, densitometry); conditions: SK-HEP-1, 30 μM, 2 hr
Protocol: Cells were plated into 6-, 12-, or 24-well cell culture clusters, at 2×10^3, 2×10^5, or 1×10^5 cells per well and incubated until 90% confluent. Treatments were applied as above.
Following incubation, cells were subjected to mRNA extraction followed by cDNA synthesis for each sample under test. Polymerase chain reaction cDNA templates were prepared for simplex PCR protocol. PCR products were then visualized using a UV Transilluminator and images captured using a Kodak ID gel imaging system. Densitometry and statistical analysis was then performed on each gene expression band image using PSP® v 10.0 running under Windows XP®.
mRNA extraction was performed using the Quickprep micro mRNA Purification Kit. Following incubation of cells post-treatment, the media was removed from the cells, adherent cells were re-suspended in 0.4 ml extraction buffer and 0.8 ml elution buffer at 65° C. was added.
A reaction mixture was prepared in individual microcentrifuge tubes containing 2 cDNA synthesis beads, 32 μl of the mRNA solution and 1 μl of pd(N)6. This mixture was incubated at 37° C. in a water bath for 60 minutes. After incubation, 27 μl of RNase-free DEPC treated water was added to each tube to make a total volume 60 μl. cDNA samples were prepared in duplicate. Sample 1 was used immediately in RT-PCR protocol.
Microcentrifuge tubes from puReTaq™Ready-To-Go™ PCR Beads containing one PCR bead were labeled for each sample required. Added to the PCR bead were 17 μl of RNase-free DEPC treated water, 1 μl sense primer, 1 μl anti-sense primer and 5 μl of the cDNA solution. RT-PCR conditions were as follows: Hsp70 and β-actin, pre-treatment step, 94° C. for 1 minute, followed by denaturing at 92° C. for 1 minute, annealing at 60° C. for 1 minute and extension at 72° C. for 1 minute. Total cycles, 30, post-treatment was then carried out at 72° C. for 10 minutes. For Hsp32, pre-treatment step, 95° C. for 2 minutes, followed by denaturing at 94° C. for 30 seconds, annealing at 58° C. for 1 minute and extension at 72° C. for 1 minute. […]

C/C1=C2N=C(/C=C3N=C(/C(C)=C4\[N-]C(C(CC(N)=O)C4(C)CCC(=O)NCC(C)OP(=O)([O-])OC4C(CO)OC(n5cnc6cc(C)c(C)cc65)C4O)C4(C)N=C1C(CCC(N)=O)C4(C)CC(N)=O)C(CCC(N)=O)C\3(C)C)C(CCC(N)=O)C/2(C)CC(N)=O.NC(CCC(=O)NC(C[S-])C(=O)NCC(=O)O)C(=O)O.[Co+3] (centres unmarked) [GSCbl, Glutathionylcobalamin]
t1/2 [1]: No decomposition within 20 hours
Concentration required for >80% survival protection (SK-HEP-1 cells [2]; 2 hours, then 30 μM homocysteine 24 hours): 50 µM
Protection against homocysteine-induced damage compared with free thiols (SK-HEP-1 cells [2]; Hcy 30 μM, NAC 45 μM, GSH 100 μM, NACCbl 12.5 μM, GSCbl 15 μM): superior to the free thiols
Mean (FIG. 14a, protection of SK-HEP-1 cells from Hcy in the presence of folate) (SK-HEP-1 cells [2]; [Hcy] 30 μM, folate 25 μM present, [GSCbl] = 15 μM, [NACCbl] = 12.5 μM, [CNCbl] = 15 μM, [MeCbl] = 12.5 μM, [HOCbl] = 17.5 μM, [NAC] = 45 μM, [GSH] = 100 μM): 2.524
Survival (SK-HEP-1 cells [2]; compound 30 μM, 50 μM homocysteine): ~60%
Protection from homocysteine-induced cell death (SK-HEP-1 cells [2]; pre-incubation 30 μM two hours, variable homocysteine two hours): protected cells from homocysteine-induced cell death
Difference between protection by NACCbl and by GSCbl (SK-HEP-1 cells [3]; 25 μM H2O2 24 hours): no difference
Concentration required to achieve >80% survival (SK-HEP-1 cells [3]; 2 hours, then 25 μM H2O2 24 hours): 100 µM
Protection from H2O2 (SK-HEP-1 cells [3]; GSCbl 30 μM, above 7.5 μM H2O2): did not provide significant protection
Cell viability (MTS assay) (SK-HEP-1 cells [3]; compound 30 μM two hours, then H2O2 200 μM a further two hours): 1.326 and 7.153 and 3.6 and 1.942 and 5.921 and 0.7579
Cell viability (MTS assay) (SK-HEP-1 cells [3]; compound concentration 6.25, 2 hours, then 25 μM H2O2 24 hours): 48.68 and 56.26 and 45.98 and 43.35 and 42.09 and 41.96
Cell viability (MTS assay) (SK-HEP-1 cells [3]; compound concentration 12.5, 2 hours, then 25 μM H2O2 24 hours): 44.27 and 54.35 and 50.53 and 47.04 and 44.14 and 42.09
Cell viability (MTS assay) (SK-HEP-1 cells [3]; compound concentration 25, 2 hours, then 25 μM H2O2 24 hours): 41.24 and 45.5863 and 42.23 and 45.26 and 41.7 and 44.99
Cell viability (MTS assay) (SK-HEP-1 cells [3]; compound concentration 100, 2 hours, then 25 μM H2O2 24 hours): 64.62 (2×) and 77.87 and 71.61 and 72.6 and 76.5481
Cell viability (MTS assay) (SK-HEP-1 cells [3]; compound concentration 200, 2 hours, then 25 μM H2O2 24 hours): 94.07 and 100.0659 and 102.8327 and 93.87 and 105.5995 and 94.73
Protection against apoptosis induced by homocysteine (SK-HEP-1 cells [4]): total protection
Hsp32 gene expression (Hsp32; SK-HEP-1, Sn (IX) protoporphyrin 25 μM, Quercitin 15 μM): induce Hsp32
Cell viability by MTS assay (FIG. 13) (SK-HEP-1 cells [5]; compound conc. 0.61, 24 hours): 2.554 and 2.376 and 2.53
Cell viability by MTS assay (FIG. 13) (SK-HEP-1 cells [5]; compound conc. 1.22, 24 hours): 2.347 and 2.433 and 2.503
Cell viability by MTS assay (FIG. 13) (SK-HEP-1 cells [5]; compound conc. 2.441, 24 hours): 2.527 and 2.434 and 2.46
Cell viability by MTS assay (FIG. 13) (SK-HEP-1 cells [5]; compound conc. 4.882, 24 hours): 2.543 and 2.528 and 2.519
Cell viability by MTS assay (FIG. 13) (SK-HEP-1 cells [5]; compound conc. 9.765, 24 hours): 2.532 and 2.476 and 2.42
Cell viability by MTS assay (FIG. 13) (SK-HEP-1 cells [5]; compound conc. 19.531, 24 hours): 2.553 and 2.476 and 2.42
Cell viability by MTS assay (FIG. 13) (SK-HEP-1 cells [5]; compound conc. 39.062, 24 hours): 2.492 and 2.484 and 2.468
Cell viability by MTS assay (FIG. 13) (SK-HEP-1 cells [5]; compound conc. 78.125, 24 hours): 2.444 and 2.406 and 2.402
Cell viability by MTS assay (FIG. 13) (SK-HEP-1 cells [5]; compound conc. 156.25, 24 hours): 2.407 and 2.37 and 2.318
Cell viability by MTS assay (FIG. 13) (SK-HEP-1 cells [5]; compound conc. 312.5, 24 hours): 2.306 and 2.204 and 2.138
Cell viability by MTS assay (FIG. 13) (SK-HEP-1 cells [5]; compound conc. 625, 24 hours): 2.197 and 1.912 and 1.787
Cell viability by MTS assay (FIG. 13) (SK-HEP-1 cells [5]; compound conc. 1250, 24 hours): 1.973 and 1.846 and 1.71
Cell viability by MTS assay (FIG. 13) (SK-HEP-1 cells [5]; compound conc. 2500, 24 hours): 1.775 and 1.81 and 1.896
Cell viability by MTS assay (FIG. 13) (SK-HEP-1 cells [5]; compound conc. 5000, 24 hours): 1.728 and 1.67 and 1.623
Cell viability by MTS assay (FIG. 13) (SK-HEP-1 cells [5]; compound conc. 10000, 24 hours): 1.322 and 1.342 and 1.366
Cell death compared with NACCbl (SK-HEP-1 cells [5]; above 0.2 mM concentration): caused greater cell death than NACCbl
Cell viability (MTS assay) (SK-HEP-1 cells [6]; compound 30 μM two hours, then H2O2 0 μM): 99.24 and 102.2264 and 105.5898 and 103.6002 and 104.0265 and 104.5476
Cell viability (MTS assay) (SK-HEP-1 cells [6]; compound 30 μM two hours, then H2O2 0.781 μM a further two hours): 96.12 and 98.39 and 97.3946 and 98.0578 and 96.02 and 95.31
Cell viability (MTS assay) (SK-HEP-1 cells [6]; compound 30 μM two hours, then H2O2 1.56 μM a further two hours): 93.56 and 90.81 (2×) and 92.33 and 88.25 and 91.8522
Cell viability (MTS assay) (SK-HEP-1 cells [6]; compound 30 μM two hours, then H2O2 3.125 μM a further two hours): 40.31 and 91.33 and 87.3046 and 82.33 and 79.77 and 77.59
Cell viability (MTS assay) (SK-HEP-1 cells [6]; compound 30 μM two hours, then H2O2 6.25 μM a further two hours): 36.52 and 39.7442 and 34.49 and 34.72 and 34.86 and 36.1
Cell viability (MTS assay) (SK-HEP-1 cells [6]; compound 30 μM two hours, then H2O2 12.5 μM a further two hours): 29.7963 and 32.02 and 36.1 and 32.4 and 29.99 and 33.92
Cell viability (MTS assay) (SK-HEP-1 cells [6]; compound 30 μM two hours, then H2O2 25 μM a further two hours): 23.54 and 26.53 and 22.93 and 24.44 and 22.03 and 20.42
Cell viability (MTS assay) (SK-HEP-1 cells [6]; compound 30 μM two hours, then H2O2 50 μM a further two hours): 15.02 and 20.8432 and 18.95 and 13.12 and 15.6324 and 17.62
Cell viability (MTS assay) (SK-HEP-1 cells [6]; compound 30 μM two hours, then H2O2 100 μM a further two hours): 10.8 and 12.36 and 11.5585 and 9.995 and 6.679 and 8.527
Cell viability (MTS assay) (SK-HEP-1 cells [6]; compound concentration 3.125, 2 hours, then 25 μM H2O2 24 hours): 20.88 and 30.9 and 21.34 and 26.8116
Cell viability (MTS assay) (SK-HEP-1 cells [6]; compound concentration 50, 2 hours, then 25 μM H2O2 24 hours): 42.69 and 45.72 and 48.16 and 46.9 and 46.77 and 51.84
Promotion of methionine synthase activity (methionine synthase): more active than other cobalamins

OO [H2O2, Hydrogen peroxide]
viability (SK-HEP-1 cells [7]): 11.3% and 10.1% and 11.8% and 11.7% and 12.4%
viability at 2 h, 0.781 µM (in vitro): 99.4%
viability at 2 h, 1.562 µM (in vitro): 96.4%
viability at 2 h, 6.25 µM (in vitro): 32.6%
viability at 2 h, 12.5 µM (in vitro): 12.4%
viability at 2 h, 25 µM (in vitro): 3.18%
Concentration achieving greater than 90% death (<10% survival) (SK-HEP-1 cells [8]; SK-HEP-1, 2 hours): 12.5 µM
Concentration sufficient to kill cultured endothelial cells (SK-HEP-1 cells [8]; SK-HEP-1, 2 hours, P<0.001): ≥ 3 μm
Cell viability (MTS assay) (SK-HEP-1 cells [8]; 0.781 μM): 102.4429 and 98.07 and 98.74 and 102.3076 and 99.02
Cell viability (MTS assay) (SK-HEP-1 cells [8]; 1.562 μM): 96.08 and 96.67 and 98.97 and 85.98
Cell viability (MTS assay) (SK-HEP-1 cells [8]; 3.125 μM): 46.88 and 52.02 and 50.62 and 52.38 and 82.7345 and 84.54
Cell viability (MTS assay) (SK-HEP-1 cells [8]; 6.25 μM): 33.89 and 32.31 and 35.2 and 32.54 and 30.46
Cell viability (MTS assay) (SK-HEP-1 cells [8]; 25 μM): 3.63 (2×) and 3.225 and 3.27 and 3.585
Cell viability (MTS assay) (SK-HEP-1 cells [8]; 50 μM): 0.4284 and 0.06765 and 0.4735

CN1c2c(nc(N)[nH]c2=O)NC[C@@H]1CNc1ccc(C(=O)N[C@@H](CCC(=O)O)C(=O)O)cc1 [folate, 5-Methyltetrahydrofolic acid disodium salt]
Protection against apoptosis induced by homocysteine (SK-HEP-1 cells [4]): partial protection
Hsp32 gene expression (Hsp32; SK-HEP-1, 30 μM, 2 hr): increase in expression
Hsp70 gene expression (Hsp70): increase in expression
